Measurements as given in the supplement of paper PMC10307832.

Tests used:
Experiment in all cases: relative viability (nuclei count vs DMSO), 5 days (fraction); higher = more cells survive
[1] = compound: CC1=C(N=C(N=C1N)[C@H](CC(=O)N)NC[C@@H](C(=O)N)N)C(=O)N[C@@H]([C@H](C2=CN=CN2)OC3C(C(C(C(O3)CO)O)O)OC4C(C(C(C(O4)CO)O)OC(=O)N)O)C(=O)N[C@H](C)[C@H]([C@H](C)C(=O)N[C@@H]([C@@H](C)O)C(=O)NCCC5=NC(=CS5)C6=NC(=CS6)C(=O)NCCC[S+](C)C)O [Bleomycin] + O=C(c1cc(Cc2n[nH]c(=O)c3ccccc23)ccc1F)N1CCN(C(=O)C2CC2)CC1 [Olaparib] (partner 8 µM); settings: main component drawn
Summary of the method: (§1)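 Lung cancer cell lines in 1536-well plates were dosed by pin tool the day after seeding, either with one drug alone or with a fixed anchor-drug dose plus five library-drug doses (not always all listed) in √10 steps. After 5 days, cells were fixed and their nuclei stained in one step (final 0.05% Triton X-100, 1% formaldehyde, 1 ug/ml Hoechst), then counted on 4× images. Relative viability is the nuclei count in treated wells divided by that in vehicle wells. Values are medians of duplicate plates.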

[2] = compound: COc1cc([C@@H]2c3cc4c(cc3[C@@H](O[C@@H]3O[C@@H]5CO[C@@H](C)O[C@H]5[C@H](O)[C@H]3O)[C@H]3COC(=O)[C@H]23)OCO4)cc(OC)c1O [Etoposide] + CC(=O)Nc1cccc(-n2c(=O)n(C3CC3)c(=O)c3c(Nc4ccc(I)cc4F)n(C)c(=O)c(C)c32)c1 [Trametinib] (partner 0.02 µM)
Summary of the method: as §1

[3] = compound: COc1cc([C@@H]2c3cc4c(cc3[C@@H](O[C@@H]3O[C@@H]5CO[C@@H](C)O[C@H]5[C@H](O)[C@H]3O)[C@H]3COC(=O)[C@H]23)OCO4)cc(OC)c1O [Etoposide] + COc1cccc2cc(-c3nc([C@H]4CC[C@H](C(=O)O)CC4)n4ncnc(N)c34)[nH]c12 [OSI-027] (partner 0.5 µM)
Summary of the method: as §1

[4] = compound: COc1cc([C@@H]2c3cc4c(cc3[C@@H](O[C@@H]3O[C@@H]5CO[C@@H](C)O[C@H]5[C@H](O)[C@H]3O)[C@H]3COC(=O)[C@H]23)OCO4)cc(OC)c1O [Etoposide] + C[C@@H](Oc1cc(-c2cnn(C3CCNCC3)c2)cnc1N)c1c(Cl)ccc(F)c1Cl [Crizotinib] (partner 1 µM)
Summary of the method: as §1

Cell Line | relative viability ([1]; first compound 0.01 µM) | relative viability ([1]; first compound 0.03162 µM) | relative viability ([1]; first compound 0.1 µM) | relative viability ([1]; first compound 0.3162 µM) | relative viability ([1]; first compound 1 µM) | relative viability ([2]; first compound 0.01 µM) | relative viability ([2]; first compound 0.03162 µM) | relative viability ([2]; first compound 0.1 µM) | relative viability ([2]; first compound 0.3162 µM) | relative viability ([2]; first compound 1 µM) | relative viability ([3]; first compound 0.01 µM) | relative viability ([3]; first compound 0.03162 µM) | relative viability ([3]; first compound 0.1 µM) | relative viability ([3]; first compound 0.3162 µM) | relative viability ([3]; first compound 1 µM) | relative viability ([4]; first compound 0.01 µM) | relative viability ([4]; first compound 0.03162 µM) | relative viability ([4]; first compound 0.1 µM) | relative viability ([4]; first compound 0.3162 µM) | relative viability ([4]; first compound 1 µM)
RERF-LC-KJ | 0.425 | 0.385 | 0.325 | 0.162 | 0.16 | 0.7 | 0.899 | 0.822 | 0.835 | 0.6 | 0.529 | 0.615 | 0.382 | 0.613 | 0.429 | 0.885 | 0.798 | 0.773 | 0.685 | 0.46
EMC-BAC-2 | 0.35 | 0.428 | 0.404 | 0.324 | 0.221 | 0.818 | 0.774 | 0.531 | 0.364 | 0.308 | 0.353 | 0.383 | 0.294 | 0.23 | 0.15 | 0.661 | 0.527 | 0.382 | 0.2 | 0.161
LK-2 | 0.369 | 0.451 | 0.279 | 0.163 | 0.165 | 0.688 | 0.861 | 0.498 | 0.438 | 0.2 | 0.248 | 0.214 | 0.185 | 0.194 | 0.158 | 0.264 | 0.265 | 0.263 | 0.219 | 0.23
NCI-H2228 | 0.443 | 0.574 | 0.457 | 0.211 | 0.159 | 0.485 | 0.576 | 0.32 | 0.279 | 0.168 | 0.499 | 0.787 | 0.276 | 0.481 | 0.164 | 0.633 | 0.551 | 0.457 | 0.373 | 0.218
NCI-H322M | 0.612 | 0.823 | 0.675 | 0.545 | 0.447 | 0.531 | 0.564 | 0.469 | 0.457 | 0.47 | 0.565 | 0.607 | 0.509 | 0.468 | 0.389 | 0.775 | 0.889 | 0.905 | 0.871 | 0.533
NCI-H1975 | 0.565 | 0.387 | 0.394 | 0.169 | 0.181 | 0.303 | 0.425 | 0.284 | 0.268 | 0.236 | 0.733 | 0.975 | 0.594 | 0.748 | 0.27 | 0.98 | 1.06 | 1.05 | 0.668 | 0.249
NCI-H1944 | 0.259 | 0.252 | 0.264 | 0.18 | 0.151 | 0.435 | 0.46 | 0.297 | 0.255 | 0.175 | 0.417 | 0.52 | 0.344 | 0.294 | 0.205 | 1.03 | 1.1 | 0.763 | 0.641 | 0.258
LU99A | 0.209 | 0.24 | 0.202 | 0.141 | 0.118 | 0.493 | 0.672 | 0.391 | 0.312 | 0.206 | 0.307 | 0.343 | 0.242 | 0.308 | 0.228 | 0.577 | 0.512 | 0.388 | 0.288 | 0.189
NCI-H1299 | 0.819 | 0.904 | 0.681 | 0.346 | 0.252 |  |  |  |  |  |  |  |  |  |  | 0.965 | 1 | 1.04 | 0.948 | 0.757
ABC-1 | 0.851 | 1.04 | 0.849 | 0.818 | 0.232 |  |  |  |  |  | 0.529 | 0.564 | 0.339 | 0.361 | 0.179 | 0.791 | 0.965 | 0.892 | 0.395 | 0.179
NCI-H1793 | 0.845 | 0.675 | 0.589 | 0.191 | 0.195 |  | 0.484 | 0.357 | 0.352 | 0.293 | 0.243 | 0.325 |  | 0.246 | 0.209 |  |  |  |  | 
NCI-H1648 | 0.757 | 0.571 | 0.443 | 0.267 | 0.357 |  | 0.552 | 0.362 | 0.523 | 0.416 |  | 0.269 | 0.253 | 0.289 | 0.292 |  |  |  |  | 
NCI-H1563 |  |  |  |  |  |  |  |  |  |  | 0.738 | 0.781 | 0.756 | 0.61 | 0.466 | 0.95 | 0.757 | 0.685 | 0.595 | 0.448
A549 | 0.25 | 0.263 | 0.29 | 0.0728 | 0.0649 |  |  |  |  |  |  |  |  |  |  | 0.734 | 0.624 | 0.406 | 0.152 | 0.083
NCI-H522 | 0.498 | 0.627 | 0.625 | 0.404 | 0.333 | 0.756 | 0.875 | 0.744 | 0.703 | 0.649 | 0.647 | 0.77 | 0.657 | 0.709 | 0.71 |  |  |  |  | 
NCI-H1623 |  |  |  |  |  |  |  |  |  |  | 0.438 | 0.497 | 0.386 | 0.413 | 0.322 |  |  |  |  | 
SW 900 | 0.577 | 0.615 | 0.442 | 0.218 | 0.206 | 0.741 | 0.653 | 0.649 | 0.354 | 0.25 | 0.448 | 0.563 | 0.367 | 0.333 | 0.129 |  |  |  |  | 
NCI-H1395 | 0.434 | 0.448 | 0.406 | 0.35 | 0.377 | 0.962 | 1.15 | 0.839 | 1.01 | 0.808 | 0.625 | 0.759 | 0.506 | 0.605 | 0.469 |  |  |  |  | 
IA-LM | 0.681 | 0.629 | 0.716 | 0.474 | 0.328 |  |  |  |  |  |  |  |  |  |  | 0.749 | 1.15 | 0.475 | 0.73 | 0.698
EBC-1 | 0.604 | 0.671 | 0.645 | 0.419 | 0.331 |  |  |  |  |  |  |  |  |  |  | 0.189 | 0.202 |  | 0.197 | 0.194
